Measured values taken from ChEMBL document CHEMBL3763131, “Anion inhibition studies of the β-carbonic anhydrase from the pathogenic bacterium Vibrio cholerae” (Bioorg Med Chem Lett, 2016).
pKi: −log10 of the molar value. Values joined by “and” are separate entries in the source; they are usually repeats but may differ in a detail not shown here. Equal values may be shown once.

Molecular target: Carbonic anhydrase 1 (Homo sapiens, UniProt P00915)
Assay: Inhibition of human carbonic anhydrase 1 preincubated for 15 mins by stopped-flow CO2 hydration assay

Carbonic anhydrase 1, sequence (P00915 whole entry): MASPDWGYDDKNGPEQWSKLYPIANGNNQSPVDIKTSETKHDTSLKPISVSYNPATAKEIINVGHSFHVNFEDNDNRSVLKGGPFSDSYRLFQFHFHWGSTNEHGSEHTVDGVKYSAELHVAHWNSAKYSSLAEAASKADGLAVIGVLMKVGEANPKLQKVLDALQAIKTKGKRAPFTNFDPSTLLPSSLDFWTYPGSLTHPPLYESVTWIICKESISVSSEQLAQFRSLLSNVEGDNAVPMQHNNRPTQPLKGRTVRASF

Row | Compound | pKi
1 | N=C=[Se] [ISOSELENOCYANATE] | 5.07
2 | F[B-](F)(F)F | < 0.70

Molecular target: not listed separately
Assay: Inhibition of Vibrio cholerae alpha-carbonic anhydrase preincubated for 15 mins by stopped-flow CO2 hydration assay

Row | Compound | pKi
3 | Br [BROMIDE] | 1.55
4 | S=C(S)S [CARBONOTRITHIOIC ACID] | 4.06
5 | [N-]=[N+]=[N-] | 3.12
6 | Cl [HYDROCHLORIC ACID] | 3.03
7 | I [IODIDE] | 2.01
8 | F [FLUORIDE ION] | 3.10
9 | OB(O)c1ccccc1 [PHENYLBORONIC ACID] | 5.15
10 | [O-][Cl+3]([O-])([O-])O [PERCHLORATE] | < 0.70
11 | S [HYDROGEN SULFIDE] | 4.13
12 | O=S(O)O [SULFUROUS ACID] | 4.17
13 | O=C(O)O [BICARBONATE] | 2.33 and 2.29
14 | O=P(O)(O)OP(=O)(O)O [PYROPHOSPHORIC ACID] | 2.53
15 | N=C=S [ISOTHIOCYANATE] | 3.09
16 | N=C=[Se] [ISOSELENOCYANATE] | 3.12
17 | O=[As](O)(O)c1ccccc1 [PHENYLARSONIC ACID] | 4.64
18 | O=[N+]([O-])O | 3.17
19 | O=S(=O)(O)OOS(=O)(=O)O | 1.08
20 | N#CO [CYANATE] | 4.12
21 | O=NO [NITROUS ACID] | 1.47
22 | O=[Te](=O)(O)O | 1.84
23 | F[B-](F)(F)F | < 0.70
24 | O=S(=O)(O)O [SULFURIC ACID] | 3.07
25 | O=S(=O)(O)NS(=O)(=O)O | 1.05
26 | O=[Se](=O)(O)O [SELENIC ACID] | 1.22
27 | NS(N)(=O)=O [SULFAMIDE] | 5.10
28 | NS(=O)(=O)O [SULFAMATE] | 4.51
29 | CCN(CC)C(=S)S [DITIOCARB] | 4.37
